For five compounds, EC50 results are on record in US20140221378A1, “SUBSTITUTED SPIROPYRIDO[1,2-a]PYRAZINE DERIVATIVE AND PHARMACEUTICAL USE OF SAME AS HIV INTEGRASE INHIBITOR” (priority 2012, published 2014).

The test concerns HIV-1 NL4-3 strain. The experiment in a line: Antiviral activity in acute infection system of MT-4 cell with HIV-1 NL4-3 strain (Cell Titer-Glo). The class given is cell-based. Background: Cellular ATP, detected with luciferase, serves as a proxy for viable cell number.
[1] abbreviates: antiviral activity, MT-4 cells infected with HIV-1 NL4-3 strain, MOI 0.05, 5 days culture, Cell Titer-Glo luminescence, read-out: EC50.

Where a name gives a salt, the structure may show the parent alone. Read-outs that look alike come from different tables or passages of the source.

In general, EC50 refers to the concentration giving half of the maximal effect. `CO[C@H]1C[C@]2(CN(C)C(=O)c3c(O)c(=O)c(C(=O)NCc4cccc(Cl)c4F)cn32)C1` [Example 1, N-(3-chloro-2-fluorobenzyl)-9′-hydroxy-cis-3-methoxy-2′-methyl-1′,8′-dioxo-1′,2′,3′,8′-tetrahydrospiro[cyclobutane-1,4′-pyrido[1,2-a]pyrazine]-7′-carboxamide hydrochloride] had a half-maximal effective concentration (EC50) (Human immunodeficiency virus 1, NL43, MT4, 120 h, antiviral activity, MT-4 cells infected with HIV-1 NL4-3 strain, MOI 0.05, 5 days culture, Cell Titer-Glo luminescence) of 3.1 nM.

As to `CO[C@H]1C[C@]2(Cn3cc(C(=O)NCc4cccc(Cl)c4F)c(=O)c(O)c3C(=O)N2C)C1` [Example S63, N-(3-chloro-2-fluorobenzyl)-9′-hydroxy-cis-3-methoxy-2′-methyl-1′,8′-dioxo-1′,2′,4′,8′-tetrahydrospiro[cyclobutane-1,3′-pyrido[1,2-a]pyrazine]-7′-carboxamide hydrochloride], for the setting “Human immunodeficiency virus 1, NL43, MT4, 120 h, antiviral activity, MT-4 cells infected with HIV-1 NL4-3 strain, MOI 0.05, 5 days culture, Cell Titer-Glo luminescence, read-out: EC50”, the EC50 is 4 nM. For the compound `CCN1C[C@@]2(C[C@@H]2COC)n2cc(C(=O)NCc3cccc(C(F)(F)F)c3F)c(=O)c(O)c2C1=O` [Example T27, (1S, 2S)-2′-ethyl-N-(2-fluoro-3-(trifluoromethyl)benzyl)-9′-hydroxy-2-(methoxymethyl)-1′,8′-dioxo-1′,2′,3′,8′-tetrahydrospiro[cyclopropane-1,4′-pyrido[1,2-a]pyrazine]-7′-carboxamide], the EC50 (Human immunodeficiency virus 1, NL43, MT4, antiviral activity, MT-4 cells acutely infected with HIV-1 NL4-3 strain (wild type), Cell Titer-Glo, read-out: EC50) is 97 nM. For the compound “N-(3-chloro-2-fluorobenzyl)- 2′-ethyl-9′-hydroxy-trans-3- (hydroxymethyl)-1′,8′-dioxo- 1′,2′,4′,8′- tetrahydrospiro[cyclobutane- 1,3′-pyrido[1,2-a]pyrazine]- 7′-carboxamide hydrochloride [Example S58]”, the EC50 under setting [1] came out at 6.8 nM. For the compound “cis-3-(benzyloxy)-N-(2,4- difluorobenzyl)-9′-hydroxy- 2′-isopropyl-1′,8′-dioxo- 1′,2′,3′,8′- tetrahydrospiro[cyclobutane- 1,4′-pyrido[1,2-a]pyrazine]- 7′-carboxamide hydrochloride [Example S2]”, under setting [1], the EC50 was determined as 10 nM.
